What was measured:
[1] = tested on: ARPE-19 cell line; test: Scavenging of ROS induced by risk factors of macular degeneration (4-HNE, Ang II) in ARPE-19 cells; type: cell-based; conditions: vs control group
Method: To measure scavenging effects of ROS in HUVEC cells that were induced by VEGF, 2′,7′-dichlorofluorescein diacetate (DCF-DA) was used. […] After […] at a concentration of 1×10^5, each of which well was coated with 0.2% gelatin, DCF-DA was cultured for 24 hours. Meanwhile, Compounds 8a and 8b were pre-treated for 3 hours, induced by VEGF for 15 minutes, and then, washed with PBS (pH 7.4) three times. Then, 10 μM of DCF-DA was placed in a EBM-2 medium to be treated for 30 minutes in a dark room. Then, DCF-DA was washed again with PBS three times, and then, subjected to measure intensity of fluorescence in the cells by using a fluorescence microscope.
According to a similar manner as in Experimental Example 2, a risk factor of macular degeneration, e.g., 4-hydroxynonenal (4-HNE) or angiotensin II (Ang II), were treated with an adult retinal pigment epithelium-19 (ARPE-19) cell line, so as to observe scavenging effects of ROS in Compounds 8a and 8b.

[2] = tested on: TNBS-induced colitis; test: TNBS-induced colitis model of inflammatory bowel disease; type: in vivo, rat (Sprague Dawley)
Source text: To see alleviating effects of the compounds of the present invention on colitis, an animal model induced by TNBS and having colitis was used for the experiments. The animal used herein was a 7 to 8 week Sprague Dawley species purchased from Samtaco Bio Korea. After the purchase, the animal was stabilized with typical solid feed for 2 days before being used for the experiments. The animal was freely supplied with feed and water during the experiments, and stayed in conditions maintaining a cage temperature of about 25±1° C. and relative humidity of about 50±10%. The cage was equipped with an automatic lightening system to adjust 12-hour light-dark cycle.
In regard to the experimental groups, 5 groups (i.e., a control group, a group administered with TNBS only, […], […], […]) were used according to the randomized block design, wherein each group consists of 6 rats having an average weight of about 180±10 g. The rats that had been fasting for 24 hours were anesthetized with diethylether (Et2O), and then, a 1 mL syringe connected with a polyethylene catheter was used to slowly inject 0.8 mL of 3% TNBS into colonic enema through the anus, wherein TNBS was diluted with 50% (v/v) ethanol. To prevent leakage of 3% TNBS from the anus, the rats turned upside down and let stand for 60 minutes.
In regard to the control group, only a vehicle (50% (v/v) ethanol) was injected into the rats of the control group in the same manner as in preparation of other experimental groups. To examine the effects of the drug, after being fasting for 24 hours, the rats were administered with drugs, i.e., 0.1 mg/kg or 1.0 mg/kg of Compounds 8a and 8j, once a day at a certain time from the second day to the fifth day of the TNBS treatment. As a comparative experimental material, 5-ASA, which is an active metabolite of sulfasalazine that is the most well-known as a therapeutic agent for IBDs, was used as a positive control group.
All the rats were scarified on the seventh day of the TNBS administration. […] After the large intestine of the rat was harvested, a 5 to 6 cm-long tissue from was cut from the anus to a size of 1 cm, and then, subjected to measure an intestine weight and activation of myeloperoxidase (MPO) in the tissue, and to perform a biopsy. In addition, changes in weight of all the animals used in the experiments were observed by using a digital mass meter, beginning from the fasting step, the TNBS administration, and the drug administration. In consideration of the management and use of laboratory animals, the animal experiments were followed according to institutional guidelines from Laboratory Animal Resources, Yeungnam University.
To measure the activation of MPO, an MPO assay was used. The colorectal tissue was washed with cold PBS, and a weight thereof was measured. Then, 200 μL of lysis buffer (pH7.4, 200 mM NaCl, 5 mM EDTA, 10 mM Tris, 10% glycerol) was added for each 10 mg of the weight of the tissue, and then, the tissue homogenizer (Bio homogenizer M133, BIOSPEC PRODUCTS Inc. USA) was used for 30 seconds in terms of homogenization. The homogenized sample was subjected to centrifugation (1500×g) twice, each for 15 minutes. The supernatant obtained therefrom was used to measure the activation of MPO by using the MPO ELISA kit (HK210, Hycult Biotechnology, Netherlands). 100 μL of the supernatant was added to the 96-well plates, each of which well was coated with an anti-mouse MPO antibody, to allow a reaction at room temperature for 1 hour, followed by being washed with PBS three times. Here, 100 μL of a reconstituted tracer was added thereto to allow a reaction at room temperature for 1 hour, followed by being washed three times repeatedly. Then, 100 μL of a reptavidin-peroxidase conjugate was added thereto to allow a reaction at room temperature for 1 hours, followed being washed. Then, 100 μL of a TMB substrate solution was added thereto to allow a reaction for 30 minutes. […]

[3] = tested on: A549 lung cancer cells; test: CAM inoculated with A549 lung cancer cells: angiogenesis and tumor growth; type: in vivo, chicken; conditions: for Inhibition rates of angiogenesis (%) / Inhibition rates of tumor growth (%): A549 on CAM, 5 days; for inhibitory effects on angiogenesis and tumor growth (in words): at each density
Method: To confirm inhibitory effects on angiogenesis through in vivo experiments, the CAM analysis was carried out (refer to Nguyen M et al., Microvascular Res., 47, pp 31-40, 1994). A fertilized egg of a chicken was cultured in conditions maintaining a temperature of 37° C. and relative humidity of 55%. On the 9th day of the culturing, a first small hole was made on an air sac part using a hypodermic needle (Green Cross Medical Corp., Korea), and then, a second hole was made on a flat part of the fertilized egg to make a window thereon. Air was removed through the first hole, i.e., the air sac part, and accordingly, the CAM was separated from the shell of the fertilized egg. Then, a grinding wheel (Multipro 395JA, Dremel, Mexico) was used to cut the air sac part, thereby making a window thereon. Meanwhile, A549 lung cancer cells were mixed with matrigel at a ratio of 1:1, and then, the mixture was treated with Compounds 8a, 8b, and 8g, respectively, followed by being inoculated at a density of 1.5×10^6 cells/CAM.
After 5 days of the inoculation, the CAM part on which tumors were formed was isolated, and then, washed with PBS. The Stemi SV6 stereomicroscope (Carl Zeiss, Germany) and the Image-Pro Plus software (Media Cybernetics; Silver Spring, Md., USA) were used to capture images of the CAM part, so as to measure the number of the blood vessels and to analyze data obtained therefrom.

[4] = ARPE-19 treated with 4-hydroxynonenal (4-HNE)
[5] = ARPE-19 treated with angiotensin II (Ang II)

Row | Compound | intensity of fluorescence (ROS) [1, 4] | intensity of fluorescence (ROS) [1, 5] | changes in weights of the rat ([2]; 1.0 mg/kg once a day, TNBS-induced rats) | conditions of the large intestine observed with the naked eye ([2]; 1.0 mg/kg, TNBS-induced rats) | weight of the large intestine ([2]; 1.0 mg/kg, vs TNBS-treated group) | activation of myeloperoxidase (MPO) in colorectal tissue ([2]; 1.0 mg/kg, vs group treated with TNBS only) | Inhibition rates of angiogenesis (%) ([3]; 0.001 pmol/CAM) | Inhibition rates of tumor growth (%) ([3]; 0.001 pmol/CAM) | Inhibition rates of angiogenesis (%) ([3]; 0.01 pmol/CAM) | Inhibition rates of tumor growth (%) ([3]; 0.01 pmol/CAM) | Inhibition rates of angiogenesis (%) ([3]; 0.1 pmol/CAM) | Inhibition rates of tumor growth (%) ([3]; 0.1 pmol/CAM) | Inhibition rates of angiogenesis (%) ([3]; 1.0 pmol/CAM) | Inhibition rates of tumor growth (%) ([3]; 1.0 pmol/CAM) | inhibitory effects on angiogenesis and tumor growth (in words) [3]
1 | CC(=O)Nc1nc(C)c(O)c(C)c1C [Compound 8a, N-(5-hydroxy-3,4,6-trimethylpyridine-2-yl)acetamide] | significant decrease in the intensity of fluorescence | significant decrease in the intensity of fluorescence | excellent recovery of the weight compared to the group treated with 5-ASA | excellent inhibitory effects on swelling and congestion | significantly decreased | lower activation of MPO | 12.7 ± 6.5% | 20.3 ± 5.9% | 23.8 ± 5.2 % | 34.2 ± 5.3 % | 30.4 ± 3.7 % | 37.9 ± 8.0 % | 41.2 ± 1.4 % | 47.7 ± 4.1 % | inhibited angiogenesis upon tumorigenesis, as well as tumor growth
2 | CCCCCCCCCCCC(=O)Nc1nc(C)c(O)c(C)c1C [Compound 8b, N-(5-hydroxy-3,4,6-trimethylpyridine-2-yl)dodecanamide] | significant decrease in the intensity of fluorescence | significant decrease in the intensity of fluorescence |  |  |  |  | 12.2 ± 4.4% | 21.7 ± 8.9% | 18.0 ± 3.2 % | 26.0 ± 10.0% | 21.3 ± 2.0 % | 31.3 ± 7.3 % | 24.7 ± 2.2 % | 38.2 ± 7.2 % | inhibited angiogenesis upon tumorigenesis, as well as tumor growth
